Results reported in PubChem BioAssay (NCI).
Values joined by “and” are separate entries in the source; they are usually repeats but may differ in a detail not shown here. Identical values can stand only once.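 Where inhibition never reached the appropriate level, the endpoint shown equals the highest concentration tested. Otherwise, values were interpolated linearly from a five-concentration, 48-hour dose response in 96-well plates. GI50 = concentration required for 50% inhibition of growth. The concentration for full growth arrest is given as TGI.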

How the values were obtained:
Assay in all cases: NCI tumour cell line growth inhibition, 48 h
DMS 273 small cell lung = tested on: DMS 273 small cell lung
SNB-78 CNS = tested on: SNB-78 CNS
M19-MEL melanoma = tested on: M19-MEL melanoma
LXFL 529 NSCLC = tested on: LXFL 529 NSCLC
KM20L2 colon = tested on: KM20L2 colon
RXF-631 renal = tested on: RXF-631 renal
P388/ADR leukemia = tested on: P388/ADR leukemia
SN12K1 renal = tested on: SN12K1 renal
P388 leukemia = tested on: P388 leukemia

Compound	TGI (DMS 273 small cell lung)	TGI (SNB-78 CNS) [µM]	TGI (M19-MEL melanoma)	TGI (LXFL 529 NSCLC)	TGI (KM20L2 colon)	TGI (RXF-631 renal) [µM]	GI50 (DMS 273 small cell lung)	GI50 (M19-MEL melanoma)	TGI (P388/ADR leukemia) [µM]	TGI (SN12K1 renal) [µM]	TGI (P388 leukemia) [µM]
CC1(O)C=CC2CCC1C2O (stereo not given)	> 100 µM	> 100	> 100 µM	> 100 µM	> 100 µM	–	–	–	–	–	–
C/C(=N\NC(N)=O)C(CN1CCCCC1)C(c1ccccc1)c1c(O)c2ccccc2oc1=O (stereo not given)	> 100 µM	> 100	> 100 µM	> 100 µM	> 100 µM	> 100	–	–	–	–	–
CCOC(=O)C(C)(C)Oc1ccc2c(=O)cc(-c3ccccc3)oc2c1	–	71.8	41.5 µM	35.7 µM	52.1 µM	–	–	–	–	–	–
Cc1ccc2nc3c(C)c(Cl)c(=O)cc-3sc2c1	> 91.3 µM	96.9	12.9 µM	> 100 µM	> 100 µM	91.3	–	–	–	–	–
CN1CCn2c(Br)ccc2C1=O	> 100 µM	> 100	> 100 µM	> 100 µM	> 100 µM	–	–	–	–	–	–
Cc1csc2c1C(=O)c1ccsc1C2=O	4.45 µM	16.5	0.339 µM	13.3 µM	17.6 µM	–	–	–	–	–	–
CCOc1ccc2[nH]c3c(C)c4cc[n+](C)cc4c(C)c3c2c1	6.33 µM and 13.8 µM	> 100	2.27 µM and 4.23 µM	1.54 µM and 3.6 µM	47.8 µM and > 96.8 µM	–	0.651 µM and 1.33 µM	0.557 µM and 1.5 µM	–	–	–
COc1cc([C@@H]2c3cc4c(cc3[C@@H](NC(=O)c3ccc(N)cc3)C3COC(=O)[C@@H]32)OCO4)cc(OC)c1O (stereo not given in full)	16.3 µM	–	> 100 µM	> 100 µM	9.57 µM	–	–	–	–	–	–
COc1cc(C2C3=C(CCC3=O)Oc3cc4c(cc32)OCO4)cc(OC)c1OC (stereo not given)	> 100 µM	> 100	> 100 µM	–	0.664 µM	78.3	–	–	–	–	–
O=c1[nH]c(=O)n(C2OC(COP(=O)(O)OP(=O)(O)O)C(O)C2O)cc1F (stereo not given)	> 50 µM	> 50	> 50 µM	> 50 µM	> 50 µM	–	–	–	–	–	–
COc1cccc(NC(=O)CSc2nnc(-c3ccc(N=Cc4ccc(Cl)cc4)cc3)o2)c1	–	> 100	60.8 µM	50.2 µM	30.6 µM	–	–	–	–	–	–
NC(Cc1cc(I)c(O)c(I)c1)C(=O)O (stereo not given)	> 322 µM	> 500	> 393 µM	–	> 500 µM	–	–	–	> 364	246	160
O=S1(=O)NNC(=NCc2ccc(Cl)cc2)c2ccccc21	> 100 µM	> 100	> 100 µM	> 100 µM	> 100 µM	> 100	–	–	–	–	–
CC1=CC(O)C(O)C2(C)C1CC1OC(=O)C(O)C3C(C)C(O)C4(O)OCC13C42 (stereo not given)	> 567 µM	154	394 µM	–	233 µM	–	–	–	> 625	150	> 625
CC(C)(C)N=C1CC(C)(C)c2ccccc2C(=Nc2ccccc2)S1	> 100 µM	> 100	> 100 µM	> 100 µM	> 100 µM	–	–	–	–	–	–
COc1ccc(/C=C2\Cc3ccccc3C2=O)cc1OC	–	> 100	> 100 µM	> 100 µM	> 100 µM	–	–	–	–	–	–
